Test results taken from patent US20080221097A1, “Imidazopyridine Derivatives as Cannabinoid Receptor Ligands” (priority 2005, published 2008).
Where a name gives a salt, the structure may show the parent alone.

molecular target: T1, human cannabinoid CB2 receptor (Homo sapiens, UniProt P34972); assay: Cannabinoid CB2 receptor agonist activity, yeast assay; format: cell-based; settings: relative to HU210; averages of a number of experiments; read-out: efficacy (Emax) at the cloned human cannabinoid CB2 receptor
T1 construct: expressed in transfected cells; host or cells: Saccharomyces cerevisiae strain MMY23 (cassette integrated at the ura3 locus, GPD promoter)
T1 sequence (P34972 whole entry): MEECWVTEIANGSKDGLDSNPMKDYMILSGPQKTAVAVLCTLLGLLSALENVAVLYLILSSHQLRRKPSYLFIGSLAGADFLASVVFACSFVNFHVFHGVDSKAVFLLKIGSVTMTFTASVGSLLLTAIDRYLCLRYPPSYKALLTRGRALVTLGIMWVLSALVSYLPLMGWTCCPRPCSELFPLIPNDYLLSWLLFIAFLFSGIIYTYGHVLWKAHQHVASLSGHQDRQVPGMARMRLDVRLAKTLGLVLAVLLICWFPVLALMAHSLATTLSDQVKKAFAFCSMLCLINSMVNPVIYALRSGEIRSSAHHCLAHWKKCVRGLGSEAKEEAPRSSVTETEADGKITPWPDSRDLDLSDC
Method: The cannabinoid CB2 receptor agonist activity of compounds of formula (I) was determined in accordance with the following experimental method.
Yeast (Saccharomyces cerevisiae) cells expressing the human cannabinoid CB2 receptor were generated by integration of an expression cassette into the ura3 chromosomal locus of yeast strain MMY23. This cassette consisted of DNA sequence encoding the human CB2 receptor flanked by the yeast GPD promoter to the 5′ end of CB2 and a yeast transcriptional terminator sequence to the 3′ end of CB2. MMY23 expresses a yeast/mammalian chimeric G-protein alpha subunit in which the C-terminal 5 amino acids of Gpa1 are replaced with the C-terminal 5 amino acids of human Gαi½ (as described in Brown et al. (2000), Yeast 16:11-22). Cells were grown at 30° C. in liquid Synthetic Complete (SC) yeast media (Guthrie and Fink (1991), Methods in Enzymology, Vol. 194) lacking uracil, tryptophan, adenine and leucine to late logarithmic phase (approximately 6 OD600/ml).
Agonists were prepared as […] solutions in DMSO. EC50 values (the concentration required to produce 50% maximal response) were estimated using 4 fold dilutions (BiomekFX, Beckman) into DMSO. Agonist solutions in DMSO (1% final assay volume) were transferred into black microtitre plates from Greiner (384-well). Cells were suspended at a density of 0.2 OD600/ml in SC media lacking histidine, uracil, tryptophan, adenine and leucine and supplemented with 10 mM 3-aminotriazole, 0.1M sodium phosphate pH 7.0, and 10 μM fluorescein di-β-D-glucopyranoside (FDGlu). This mixture (50 μl per well) was added to agonist in the assay plates (Multidrop 384, Labsystems). After incubation at 30° C. for 24 hours, fluorescence resulting from degradation of FDGlu to fluorescein due to exoglucanase, an endogenous yeast enzyme produced during agonist-stimulated cell growth, was determined using a fluorescence microtitre plate reader (Tecan Spectrofluor or LJL Analyst excitation wavelength: 485 nm; emission wavelength: 535 nm). Fluorescence was plotted against compound concentration and iteratively curve fitted using a four parameter fit to generate a concentration effect value. Efficacy (Emax) was calculated from the equation
Emax=Max[compound X]−Min[compound X]/Max[HU210]−Min[HU210]×100%
where Max[compound X] and Min[compound X] are the fitted maximum and minimum respectively from the concentration effect curve for compound X, and Max[HU210] and Min[HU210] are the fitted maximum and minimum respectively from the concentration effect curve for (6aR,10aR)-3-(1,1′-Dimethylheptyl)-6a,7,10,10a-tetrahydro-1-hydroxy-6,6-dimethyl-6H-dibenzo [b,d]pyran-9-methanol (HU210; available from Tocris). Equieffective molar ratio (EMR) values were calculated from the equation
Where EC50[compound X] is the EC50 of compound X and EC50[HU210] is the EC50of HU210.

Question: With `Cn1cnc2c(Nc3cccc(Br)c3)ncc(C(=O)N3CCCCC3)c21` [Example 1, N-(3-Bromophenyl)-1-methyl-7-(1-piperidinylcarbonyl)-1H-imidazo[4,5-c]pyridin-4-amine hydrochloride salt] as the compound, how does the Emax read?
Answer: > 50%

Question: `Cn1cnc2c(Nc3cccc(Br)c3)ncc(C(=O)N3CCCC3)c21` [Example 3, N-(3-Bromophenyl)-1-methyl-7-(1-pyrrolidinylcarbonyl)-1H-imidazo[4,5-c]pyridin-4-amine hydrochloride salt] was tested. Which Emax did it give?
Answer: > 50%

Question: With `CC(C)CNC(=O)c1cnc(Nc2cccc(Br)c2)c2ncn(C)c12` [Example 4, 4-[(3-Bromophenyl)amino]-1-methyl-N-(2-methylpropyl)-1H-imidazo[4,5-c]pyridine-7-carboxamide hydrochloride salt] as the compound, how does the Emax read?
Answer: > 50%

Question: How did the Emax turn out when `Cn1cnc2c(Nc3ccc(Cl)cc3Cl)ncc(C(=O)N3CCOCC3)c21` [Example 5, N-(2,4-Dichlorophenyl)-1-methyl-7-(4-morpholinylcarbonyl)-1H-imidazo[4,5-c]pyridin-4-amine hydrochloride salt] was run?
Answer: > 50%

Question: With `Cn1cnc2c(Nc3ccc(Cl)cc3Cl)ncc(C(=O)N3CCCC3)c21` [Example 7, N-(2,4-Dichlorophenyl)-1-methyl-7-(1-pyrrolidinylcarbonyl)-1H-imidazo[4,5-c]pyridin-4-amine hydrochloride salt] as the compound, how does the Emax read?
Answer: > 50%

Question: `Cn1cnc2c(Nc3cccc(Cl)c3)ncc(C(=O)N3CCCCC3)c21` [Example 10, N-(3-Chlorophenyl)-1-methyl-7-(1-piperidinylcarbonyl)-1H-imidazo[4,5-c]pyridin-4-amine hydrochloride salt] was tested. Which Emax did it give?
Answer: > 50%

Question: For `CC(C)CNC(=O)c1cnc(Nc2cccc(Cl)c2)c2ncn(C)c12` [Example 12, 4-[(3-Chlorophenyl)amino]-1-methyl-N-(2-methylpropyl)-1H-imidazo[4,5-c]pyridine-7-carboxamide hydrochloride salt], which Emax is on record?
Answer: > 50%

Question: For `Cn1cnc2c(Oc3cccc(Cl)c3)ncc(C(=O)N3CCCCC3)c21` [Example 13, 4-[(3-Chlorophenyl)oxy]-1-methyl-7-(1-piperidinylcarbonyl)-1H-imidazo[4,5-c]pyridine hydrochloride salt], which Emax is on record?
Answer: > 50%

Question: For `Cn1cnc2c(Oc3cccc(Cl)c3)ncc(C(=O)N3CCOCC3)c21` [Example 14, 4-1(3-Chlorophenyl)oxy]-1-methyl-7-(4-morpholinylcarbonyl)-1H-imidazo[4,5-c]pyridine hydrochloride salt], which Emax is on record?
Answer: > 50%

Question: For `Cn1cnc2c(Nc3cccc(OC(F)(F)F)c3)ncc(C(=O)N3CCOCC3)c21` [Example 17, 1-Methyl-7-(4-morpholinylcarbonyl)-N-{3-[(trifluoromethyl)oxy]phenyl}-1H-imidazo[4,5-c]pyridin-4-amine hydrochloride salt], which Emax is on record?
Answer: > 50%

Question: Which Emax does the source give for `Cn1cnc2c(Nc3cccc(F)c3)ncc(C(=O)N3CCOCC3)c21` [Example 18, N-(3-Fluorophenyl)-1-methyl-7-(4-morpholinylcarbonyl)-1H-imidazo[4,5-c]pyridin-4-amine hydrochloride salt] here?
Answer: > 50%

Question: How did the Emax turn out when `Cc1c(Nc2ncc(C(=O)N3CCOCC3)c3c2ncn3C)cccc1C(F)(F)F` [Example 20, 1-Methyl-N-[2-methyl-3-(trifluoromethyl)phenyl]-7-(4-morpholinylcarbonyl)-1H-imidazo[4,5-c]pyridin-4-amine hydrochloride salt] was run?
Answer: > 50%

Question: Which Emax does the source give for `Cn1cnc2c(Nc3cccc(C(F)(F)F)c3F)ncc(C(=O)N3CCOCC3)c21` [Example 21, N-[2-Fluoro-3-(trifluoromethyl)phenyl]-1-methyl-7-(4-morpholinylcarbonyl)-1H-imidazo[4,5-c]pyridin-4-amine hydrochloride salt] here?
Answer: > 50%

Question: `Cn1cnc2c(Nc3ccc(F)c(Cl)c3)ncc(C(=O)N3CCOCC3)c21` [Example 22, N-(3-Chloro-4-fluorophenyl)-1-methyl-7-(4-morpholinylcarbonyl)-1H-imidazo[4,5-c]pyridin-4-amine hydrochloride salt] was tested. Which Emax did it give?
Answer: > 50%
